Consider 4 compounds from patent publication US8828992B2, “Substituted azole derivatives, pharmaceutical composition containing the derivatives, and method for treating Parkinson's disease using the same” (priority 2009, dated 2014).

One assay relates to MPTP-induced mouse model. In words: Tail suspension test in MPTP-induced mouse model of Parkinson's disease. To be noted: Mus musculus, 168 h; administration concentration 10 (10 mg/kg), oral, 7 days after MPTP; % of control group (Sham); read-out: Mobility (%). The format is in vivo. As to the method:
(§1) A. MPTP (1-methyl-4-phenyl-1,2,3,6-tetrahydropyridine) and drug treatment MPTP (20 mg/kg, free base; Sigma, St. louis, Mo.) was administered to an 8 week old (20-25 g) male C57BL/6 test mouse intraperitoneally three times a day at the interval of 2 hours to construct a model (Breidert et al., 2002; Lichuan Yang, Shuei Sugama, Jason W. Chirichigno, Jason Gregorio, Stefan Lorenzl, Dong H. Shin, Susan E. Browne, Yoshinori Shimizu, Tong H. Joh, M. Flint Beal, l and David S. Alber. (2003) Minocycline Enhances MPTP Toxicity to Dopaminergic Neurons. J Neurosci Res. 74:278-285). In order to observe the protective effects of the compound as a candidate drug, the compound was dissolved in a solution containing 10% dimethylsulfoxide (DMSO), 10% Cremophor, and 40% polyethyleneglycol (PEG), […] treatment. Rasagiline as a control drug was also dissolved in the same solution, and the resulting solution was administered at the same doses in the same manner as above. A control group (Sham) in which MPTP was not administered was constructed by intraperitoneally administering saline solution to the group instead of MPTP in the same manner as above and orally administering the same solution 1 hour before and after PBS treatment.
A tail suspension test was performed in order to measure the induction degree of behavioral dysfunctions in accordance with administration of MPTP and a drug. At 7 days after administration of the drug, a round stainless steel rod (width: 1 cm) was affixed to a cage (width: 16 cm, height: 40 cm) 35 cm above from the surface shielded by black wooden structures in the left and right sides to perform experiments. The time for which the animal moved for a total period of 6 minutes was measured in seconds to evaluate the drug action.
Mobility refers to an expression of the measurement of the time for which the animal moved with its tail hung high as a percentage compared to the measurement of a control group.

For assay [1], the system named is dopamine (DA) in the striatum of a MPTP-treated mouse. The assay can be described thus: Combined administration with Levodopa group: dopamine in the striatum of MPTP-treated mouse (HPLC). Format: in vivo. As to conditions: compound 1 mg/kg PO co-administered with Levodopa group (Levodopa 50 mg/kg + Benzerazide 25 mg/kg IP); for Concentration of dopamine compared to a control group %, 1 hr: 1 hr after Levodopa; for Concentration of dopamine compared to a control group %, 3 hr: 3 hr after Levodopa.

Assay [2] has as its target T1, Monoamineoxidase B type human-derived enzyme (Homo sapiens, UniProt P27338).
T1 sequence (P27338 1-520): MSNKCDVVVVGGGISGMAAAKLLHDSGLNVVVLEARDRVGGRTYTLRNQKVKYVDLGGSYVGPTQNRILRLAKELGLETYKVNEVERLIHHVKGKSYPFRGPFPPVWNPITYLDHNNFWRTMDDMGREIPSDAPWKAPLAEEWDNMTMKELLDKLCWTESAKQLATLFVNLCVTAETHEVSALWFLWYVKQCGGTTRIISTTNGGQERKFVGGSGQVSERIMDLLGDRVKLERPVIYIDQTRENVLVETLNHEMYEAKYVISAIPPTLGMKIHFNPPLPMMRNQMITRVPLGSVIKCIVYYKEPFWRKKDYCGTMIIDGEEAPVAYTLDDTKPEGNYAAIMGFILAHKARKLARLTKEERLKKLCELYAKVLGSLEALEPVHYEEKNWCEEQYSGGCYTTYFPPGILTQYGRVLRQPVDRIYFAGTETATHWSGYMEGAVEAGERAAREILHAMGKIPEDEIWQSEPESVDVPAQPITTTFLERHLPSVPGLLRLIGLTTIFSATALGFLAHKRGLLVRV
In words: Inhibitory effects on the activity of MAO-B (Amplex Red fluorescence, benzylamine substrate). Format: biochemical. As to conditions: read-out: Inhibitory effects (%) on the activity of MAO-B. In short, it runs like this:
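Human MAO-B, diluted 1:200 in 0.05 M sodium phosphate pH 7.4, was pre-incubated with compound for 30 min. It was then mixed 1:1 with working buffer holding 400 μM Amplex Red, 2 U/ml HRP and 2 mM benzylamine (working-buffer levels). Fluorescence (Ex 563/Em 587 nm) was read over 30 min.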

Assay [3] concerns dopamine (DA) in the striata of MPTP-treated mice. In words: Levels of dopamine in the striata of MPTP-treated mice (HPLC). The format is in vivo. To be noted: Mus musculus, po, 168 h, 10 mpk, 7 days after MPTP, read-out: Levels of dopamine (DA) in the striata, compared to a control group %. Here is the method: as §1
The changes of contents of dopamine and dopamine metabolites in the striatum in accordance with administrations of MPTP and the drug were measured by high performance liquid chromatography (HPLC). At 7 days after administration of the drug, the animal was sacrificed by cervical vertebra dislocation and the brain tissues were immediately isolated from the animal. 0.5 ml of iced solution for HPLC analysis (0.1 M perchloric acid and 0.1 mM EDTA) was added to a striatum obtained from the isolated brain tissues, and an ultrasonic grinder was used to prepare a tissue homogenate. The tissue homogenate was centrifuged at 12,000 rpm for 15 minutes, and its supernatant was filtered through nitrocellulose membrane filter (0.2 um, Millipore). For HPLC analysis, uBondapak™ C18 column (4.6×150 mm, particle size 10 μm: Shisheido, Japan) was used, the flow rate of the mobile phase (0.07 M monobasic sodium phosphate), 1 mM sodium octasulfonic acid, 0.1 uM EDTA, 5% acetonitrile, pH 3.2) was maintained at 0.7 ml/min, and the electrode potential of the electrochemical detector (ICA-5000, Japan) was set at 700 mV.

Read-outs that look alike come from different tables or passages of the source.

`NC(=O)OCc1cc(-c2ccc(OCc3ccccc3)c(Br)c2)no1` [Example 6, carbamic acid 3-(4-benzyloxy-3-bromo-phenyl)-isoxazol-5-ylmethyl ester]: the response vs control in vivo at 10 mg/kg in the assay with MPTP-induced mouse model is 82.9%. In assay [1], the “Concentration of dopamine compared to a control group %, 1 hr” value (from here on “Concentration … to a control group %, 1 hr”) is on record as 220.87% and the “Concentration of dopamine compared to a control group %, 3 hr” value (“Concentration … to a control group %, 3 hr” for short) amounted to 59.8%. In assay [2] (treatment concentration 10 nM), the inhibition at 0.01 µM was determined as 90.7%. Also, in assay [3], the response vs control in vivo at 10 mg/kg worked out at 112%.
Consider `NC(=O)OCc1cc(-c2ccc(OCc3ccc(Cl)s3)cc2)no1` [Example 62, Carbamic acid 3-[4-(5-chloro-thiophen-2-ylmethoxy)-phenyl]-isoxazol-5-ylmethyl ester], for which the response vs control in vivo at 10 mg/kg with MPTP-induced mouse model came to 97.3%; in assay [3], 99.1%. Moreover, the “Concentration … to a control group %, 1 hr” value in assay [1] amounted to 204.8%. Also, the “Concentration … to a control group %, 3 hr” value in assay [1] is on record as 65.4%. Moreover, the inhibition at 0.01 µM in assay [2] was determined as 98.6%.
Consider `NC(=O)OCc1cc(-c2ccc(OCc3c(Cl)cncc3Cl)cc2)no1` [Example 69, Carbamic acid 3-[4-(3,5-dichloro-pyridin-4-ylmethoxy)-phenyl]-isoxazol-5-ylmethyl ester], for which the response vs control in vivo at 10 mg/kg in the assay with MPTP-induced mouse model came out at 97.4%; in assay [3], 100%. Also, the “Concentration … to a control group %, 1 hr” value in assay [1] was found to be 205.2%. Also, in assay [1], the “Concentration … to a control group %, 3 hr” value was 200.4%. Besides, the inhibition at 0.01 µM in assay [2] (treatment concentration 10 nM) is 83.6%.
For `CNC(=O)OCc1cc(-c2ccc(OCc3ccccc3)cc2)no1` [Example 121, methyl-carbamic acid 3-(4-benzyloxy-phenyl)-isoxazol-5-ylmethyl ester], in the assay with MPTP-induced mouse model, the response vs control in vivo at 10 mg/kg was found to be 91.2%. In addition, in assay [1], the “Concentration … to a control group %, 1 hr” value worked out at 144.6% and the “Concentration … to a control group %, 3 hr” value is on record as 89.2%. Moreover, the inhibition at 0.01 µM in assay [2] (treatment concentration 10 nM) stood at 82.8%. The response vs control in vivo at 10 mg/kg in assay [3] is 97.9%.
